Data as given in BindingDB's records for doi:10.1016/j.bmcl.2004.01.094 (Arqule, 2004).

What was measured:
[1] = target: Methionyl-tRNA synthetase (Staphylococcus aureus); experiment: Inhibition of Staphylococcus aureus methionyl-tRNA synthetase (SaMetRS)
[2] = target: Methionyl-tRNA synthetase (Enterococcus faecalis); experiment: Inhibition of Enterococci faecalis methionyl-tRNA synthetase (EfMetRS)
[3] = target: Methionyl-tRNA synthetase (Staphylococcus aureus); experiment: Inhibition of Staphylococcus aureus methionyl-tRNA synthetase (SaMetRS); remark: listed apart in the source

CCC/C(=C1/N=C(c2ccc(Br)cc2)OC1=O)N1CC[C@H]1C(=O)N[C@@H](Cc1ccc(O)cc1)C(N)=O [(S)-1-{1-[2-(4-Bromo-phenyl)-5-oxo-oxazol-(4Z)-ylidene]-butyl}-azetidine-2-carboxylic acid [(S)-1-carbamoyl-2-(4-hydroxy-phenyl)-ethyl]-amide]
IC50 [1]: 0.087 µM

CCC/C(=C1/N=C(c2ccc(Br)cc2)OC1=O)N1CCC[C@H]1C(=O)N[C@@H](Cc1ccc(O)cc1)C(N)=O [(S)-1-{1-[2-(4-Bromo-phenyl)-5-oxo-oxazol-(4Z)-ylidene]-butyl}-pyrrolidine-2-carboxylic acid [(S)-1-carbamoyl-2-(4-hydroxy-phenyl)-ethyl]-amide]
IC50 [2]: 3.11 µM | IC50 [3]: 0.76 µM

NC(=O)[C@H](Cc1ccc(O)cc1)NC(=O)[C@@H]1CCCN1/C=C1\N=C(c2ccc(Br)cc2)OC1=O [(S)-1-[2-(4-Bromo-phenyl)-5-oxo-oxazol-(4Z)-ylidenemethyl]-pyrrolidine-2-carboxylic acid [(S)-1-carbamoyl-2-(4-hydroxy-phenyl)-ethyl]-amide]
IC50 [2]: 48 µM | IC50 [3]: 1.1 µM

CC/C(=C1/N=C(c2ccc(Br)cc2)OC1=O)N1CCC[C@H]1C(=O)N[C@@H](Cc1ccc(O)cc1)C(N)=O [(S)-1-{1-[2-(4-Bromo-phenyl)-5-oxo-oxazol-(4Z)-ylidene]-propyl}-pyrrolidine-2-carboxylic acid [(S)-1-carbamoyl-2-(4-hydroxy-phenyl)-ethyl]-amide]
IC50 [2]: 5.93 µM | IC50 [1]: 0.85 µM

NC(=O)[C@H](Cc1ccc(O)cc1)NC(=O)[C@@H]1CCCN1/C=C1\N=C(c2ccc(Cl)cc2Cl)OC1=O [(S)-1-[2-(2,4-Dichloro-phenyl)-5-oxo-oxazol-(4Z)-ylidenemethyl]-pyrrolidine-2-carboxylic acid [(S)-1-carbamoyl-2-(4-hydroxy-phenyl)-ethyl]-amide]
IC50 [2]: 14 µM | IC50 [1]: 0.68 µM

NC(=O)[C@H](Cc1ccc(O)cc1)NC(=O)[C@@H]1CCN1/C=C1\N=C(c2ccc(Br)cc2)OC1=O [(S)-1-[2-(4-Bromo-phenyl)-5-oxo-oxazol-(4Z)-ylidenemethyl]-azetidine-2-carboxylic acid [(S)-1-carbamoyl-2-(4-hydroxy-phenyl)-ethyl]-amide]
IC50 [2]: 1.4 µM | IC50 [1]: 0.51 µM
